Results published in US6099822A, “Imaging methods and compositions” (priority 1998, dated 2000).

What was measured:
[1] = tested on: Chinese hamster ovary cells; conditions: in words; cited from earlier work
[2] = tested on: MX-1 human breast tumor xenografts; assay: Autoradiographic biodistribution of Tc-99m-TG and C14-DG in nude mice bearing MX-1 tumors; type: in vivo; conditions: MX-1, center of the tumors, in words
Experimental: 3 mCi (111 MBq) of Tc-99m-5TG and 5 μCi (185 kBq) of C^14 -DG were injected at the same time into the tail vein of the mice. Autoradiogram sections including the tumors and vital organs of the mice were obtained at 20 minutes, 1 hour, and 3 hours post injection and developed using simultaneous Tc-99m and C^14 exposures of the same sections.

| Molecule | Exclusion by hypoxic cells [1] | Distribution within tumor [2] |
| --- | --- | --- |
| O=C([O-])CN(CCN(CC(=O)[O-])CC(=O)[O-])CCN(CC(=O)[O-])CC(=O)[O-].[99Tc+4] [Tc-99m-DTPA] | exclusion of Tc-99m-DTPA by hypoxic cells | – |
| C^14 -2-deoxyglucose [C^14 -DG] | – | decreased activity in this central area |
